# Patent US20240279190A1, “COMPOUNDS FOR MODULATING PLATELET-TYPE 12-(S)-LIPOXYGENASE AND METHODS OF USE FOR SAME” (The Regents of The University of California, priority 2021, published 2024)
# Assays:
# [1] = system: other LOX isozymes (h5-LOX, h15-LOX-1, h15-LOX-2); experiment: Inhibitor selectivity against other LOX isozymes; assay type: biochemical, human
# Description: The wild type 12-LOX (wt-12-LOX) enzyme and its mutants were expressed as fusion proteins, with an N-terminal 6×His tag, and were affinity purified by nickel-iminodiacetic acid agarose using FPLC (Biorad). For inhibitor selectivity, human 5-LOX (h5-LOX, UniProt entry P09917), human reticulocyte 15-LOX-1 (h15-LOX-1, UniProt entry P16050) and human epithelial 15-LOX-2 (h15-LOX-2, UniProt entry 015296) were also isolated. The purity of all the proteins, except h5-LOX, was greater than 90% as determined by SDS-PAGE analysis. h5-LOX was an ammonium sulfate fraction due to the extensive loss of activity upon purification.
# IC50 values of ML355 against 12-LOX and its mutants were determined in a similar manner as the steady state kinetic values. The percent inhibition was determined by comparing the enzyme rates of the control (DMSO solvent) and the inhibitor sample by following the formation of the conjugated diene product at 234 nm (ε=25,000 M^−1cm^−1). The reactions were initiated by adding 200 nM 15-LOX-2, 30 nM 12-LOX, 40 nM 15-LOX-1, or approximately 100-300 nM (total protein) of 5-LOX ammonium sulfate fraction to a cuvette with 2 mL reaction buffer, constantly stirred using a magnetic stir bar at room temperature (22° C.). […] The substrate concentration was quantitatively determined by allowing the enzymatic reaction to go to completion in the presence of soybean LOX-1. […]
# [2] = system: human islets; experiment: Glucose stimulated insulin secretion (GSIS) of human islets treated with PIC; assay type: cell-based
# Procedure: Human islets from nondiabetic donors were received from the Integrated Islet Distribution Program or Prodo Laboratories (Aliso Viejo, CA) (Table 1). Characteristics of islets and donors are summarized in the below table. Islets were incubated in CMRL-1066 medium supplemented with 10% fetal bovine serum and 1% Pen-Strept overnight at 37° C. in 5% CO2 for recovery from shipment. On the next day, islets were transferred to CMRL-1066 supplemented with 5% fetal bovine serum and 1% Pen-Strept. A portion of the islets were randomly selected and incubated with a mixture of human PICs, […] tumor necrosis factor α, […] interferon-γ, and […] IL-1β (all from BD Biosciences, San Jose, CA) in the presence or absence of 1 μmol/L compound LOX-12-001. Compound LOX-12-001 was added 30 minutes before the addition of pro-inflammatory cytokines (PIC).
# Use of Krebs-Ringer buffer (KRB) for glucose-stimulated insulin secretion (GSIS) was previously published. For batch assays, islets treated with PIC in the presence or absence of compound LOX-12-001 (1 μM) for 24 hours were transferred to KRB without glucose and were incubated for 1 hour at 37° C. in 5% CO2 in the absence of PIC and compound LOX-12-001. Thereafter, 50 islet equivalents (IEQs) per well were transferred to six-well plates filled with 1 mL of KRB containing 3 mmol/L or 18 mmol/L of glucose and were incubated for 1 hour at 37° C. in 5% CO2. Each condition was performed in triplicate. After incubation, supernatant was collected for determination of insulin secretion by human insulin enzyme-linked immunosorbent assay (Mercodia, Winston-Salem, NC).
# Data are presented as mean±standard error of the mean and were analyzed using Two-way Annova analysis of variance Sidak's multiple comparison test (Prism software, Irvine, CA) as indicated in each figure. P<0.05 was considered significant.
smiles,measurement,setting,value
"COc1cccc(CNc2ccc(S(=O)(=O)Nc3nc4c(ccc5ccccc54)s3)cc2)c1O [Compound LOX-12-001, 4-((2-hydroxy-3-methoxybenzyl)amino)-N-(naphtho[1,2-d]thiazol-2-yl)benzenesulfonamide]",selectivity against other LOX isozymes,[1],maintained
same,insulin secretion,"[2]; 3 mmol/L glucose, PIC plus 1 μM compound for 24 hrs",140+/−3 mU/L
same,insulin secretion,"[2]; 3 mmol/L glucose, compound only (1 μM), no PIC",25+/−5 mU/L
same,insulin secretion,"[2]; 18 mmol/L glucose, PIC plus 1 μM compound for 24 hrs",352+/−10 mU/L
same,insulin secretion,"[2]; 18 mmol/L glucose, compound only (1 μM), no PIC",128+/−13 mU/L
